Data: PubChem BioAssay AID2060494 (Molecular Pharmacology Branch, DTP, NCI, 2025)

Test system: 435261-313-R-J1-PDC complex spheroid viability
Assay: Anticancer human tumor 435261-313-R-J1-PDC patient-derived colon adenocarcinoma cell line growth inhibition [GQUAD]
Conditions: for IC50: curve of first compound; for viability, T/C: stronger effect = lower value
Method in brief: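 Multi-cell-type spheroids of tumor cells with HUVEC and mesenchymal stem cells, treated with drug combinations. Concentrations descend in half-log steps from near clinical Cmax, or from 10 microM where Cmax is unknown; viability read-out.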

[1] = second compound 0.0316 µM, first compound 0.0316 µM
[2] = second compound 0.0316 µM, first compound 0.1 µM
[3] = second compound 0.0316 µM, first compound 0.316 µM
[4] = second compound 0.0316 µM, first compound 1 µM
[5] = second compound 0.0316 µM, first compound 3.16 µM
[6] = second compound 0.0316 µM, first compound 10 µM
[7] = second compound 0.1 µM, first compound 0.0316 µM
[8] = second compound 0.1 µM, first compound 0.1 µM
[9] = second compound 0.1 µM, first compound 0.316 µM
[10] = second compound 0.1 µM, first compound 1 µM
[11] = second compound 0.1 µM, first compound 3.16 µM
[12] = second compound 0.1 µM, first compound 10 µM
[13] = second compound 0.316 µM, first compound 0.0316 µM
[14] = second compound 0.316 µM, first compound 0.1 µM
[15] = second compound 0.316 µM, first compound 0.316 µM
[16] = second compound 0.316 µM, first compound 1 µM
[17] = second compound 0.316 µM, first compound 3.16 µM
[18] = second compound 0.316 µM, first compound 10 µM
[19] = second compound 1 µM, first compound 0.0316 µM
[20] = second compound 1 µM, first compound 0.1 µM
[21] = second compound 1 µM, first compound 0.316 µM
[22] = second compound 1 µM, first compound 1 µM
[23] = second compound 1 µM, first compound 3.16 µM
[24] = second compound 1 µM, first compound 10 µM
[25] = second compound 3.16 µM, first compound 0.0316 µM
[26] = second compound 3.16 µM, first compound 0.1 µM
[27] = second compound 3.16 µM, first compound 0.316 µM
[28] = second compound 3.16 µM, first compound 1 µM
[29] = second compound 3.16 µM, first compound 3.16 µM
[30] = second compound 3.16 µM, first compound 10 µM
[31] = second compound 10 µM, first compound 0.0316 µM
[32] = second compound 10 µM, first compound 0.1 µM
[33] = second compound 10 µM, first compound 0.316 µM
[34] = second compound 10 µM, first compound 1 µM
[35] = second compound 10 µM, first compound 3.16 µM
[36] = second compound 10 µM, first compound 10 µM
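Note: spheroids exposed to the agents for seven days before readout.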
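Throughout, for viability, T/C: percent of vehicle control viability with DMSO wells as 100%.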

C#Cc1c(F)ccc2cc(O)cc(-c3ncc4c(N5CC6CCC(C5)N6)nc(OCC56CCCN5CC(F)C6)nc4c3F)c12 (stereo unspecified) + Cc1[nH]c2ccc(F)cc2c1-c1nc2c3cccnc3c3ncccc3c2[nH]1
IC50 (second compound 0.0316 µM): > 10 µM | IC50 (second compound 0.1 µM): > 10 µM | IC50 (second compound 0.316 µM): > 10 µM | IC50 (second compound 1 µM): > 10 µM | IC50 (second compound 3.16 µM): < 0.0316 µM | IC50 (second compound 10 µM): < 0.0316 µM | viability, T/C [1]: 94.8% | viability, T/C [2]: 106% | viability, T/C [3]: 88.9% | viability, T/C [4]: 104% | viability, T/C [5]: 65.6% | viability, T/C [6]: 58.9% | viability, T/C [7]: 107% | viability, T/C [8]: 85.4% | viability, T/C [9]: 104% | viability, T/C [10]: 62% | viability, T/C [11]: 61.1% | viability, T/C [12]: 57% | viability, T/C [13]: 64.5% | viability, T/C [14]: 111% | viability, T/C [15]: 75.8% | viability, T/C [16]: 75.4% | viability, T/C [17]: 84.7% | viability, T/C [18]: 74.4% | viability, T/C [19]: 61.8% | viability, T/C [20]: 55.1% | viability, T/C [21]: 85.6% | viability, T/C [22]: 66.9% | viability, T/C [23]: 63.5% | viability, T/C [24]: 46.3% | viability, T/C [25]: 51.2% | viability, T/C [26]: 42.9% | viability, T/C [27]: 39.6% | viability, T/C [28]: 28.4% | viability, T/C [29]: 45% | viability, T/C [30]: 0.2% | viability, T/C [31]: 24.2% | viability, T/C [32]: 28.3% | viability, T/C [33]: 28.4% | viability, T/C [34]: 37.1% | viability, T/C [35]: 29% | viability, T/C [36]: 0.26%

CCCS(=O)(=O)Nc1ccc(F)c(C(=O)c2c[nH]c3ncc(-c4ccc(Cl)cc4)cc23)c1F + Cc1[nH]c2ccc(F)cc2c1-c1nc2c3cccnc3c3ncccc3c2[nH]1
IC50 (second compound 0.0316 µM): 5.2 µM | IC50 (second compound 0.1 µM): 4.08 µM | IC50 (second compound 0.316 µM): 4.06 µM | IC50 (second compound 1 µM): 3.25 µM | IC50 (second compound 3.16 µM): < 0.0316 µM | IC50 (second compound 10 µM): < 0.0316 µM | viability, T/C [1]: 77.2% | viability, T/C [2]: 87.3% | viability, T/C [3]: 109% | viability, T/C [4]: 115% | viability, T/C [5]: 78.5% | viability, T/C [6]: 12.7% | viability, T/C [7]: 60.5% | viability, T/C [8]: 105% | viability, T/C [9]: 116% | viability, T/C [10]: 70.9% | viability, T/C [11]: 62.2% | viability, T/C [12]: 15.5% | viability, T/C [13]: 66.5% | viability, T/C [14]: 73.7% | viability, T/C [15]: 76.7% | viability, T/C [16]: 70% | viability, T/C [17]: 59.9% | viability, T/C [18]: 14% | viability, T/C [19]: 41.2% | viability, T/C [20]: 70% | viability, T/C [21]: 40.5% | viability, T/C [22]: 55.5% | viability, T/C [23]: 50.8% | viability, T/C [24]: 11.7% | viability, T/C [25]: 30.2% | viability, T/C [26]: 29.2% | viability, T/C [27]: 24.5% | viability, T/C [28]: 19.6% | viability, T/C [29]: 28.4% | viability, T/C [30]: 7.37% | viability, T/C [31]: 27.2% | viability, T/C [32]: 23% | viability, T/C [33]: 24.6% | viability, T/C [34]: 27.1% | viability, T/C [35]: 26.1% | viability, T/C [36]: 8.52%

O=c1[nH]cc(F)c(=O)[nH]1 + Cc1[nH]c2ccc(F)cc2c1-c1nc2c3cccnc3c3ncccc3c2[nH]1
IC50 (second compound 0.0316 µM): > 10 µM | IC50 (second compound 0.1 µM): > 10 µM | IC50 (second compound 0.316 µM): > 10 µM | IC50 (second compound 1 µM): 0.464 µM | IC50 (second compound 3.16 µM): < 0.0316 µM | IC50 (second compound 10 µM): < 0.0316 µM | viability, T/C [1]: 112% | viability, T/C [2]: 72.3% | viability, T/C [3]: 80.1% | viability, T/C [4]: 74.5% | viability, T/C [5]: 66.2% | viability, T/C [6]: 64.9% | viability, T/C [7]: 94.7% | viability, T/C [8]: 84.2% | viability, T/C [9]: 62% | viability, T/C [10]: 72.1% | viability, T/C [11]: 64.1% | viability, T/C [12]: 61.3% | viability, T/C [13]: 78.5% | viability, T/C [14]: 66.5% | viability, T/C [15]: 52.8% | viability, T/C [16]: 65.3% | viability, T/C [17]: 49.1% | viability, T/C [18]: 56% | viability, T/C [19]: 53.2% | viability, T/C [20]: 75% | viability, T/C [21]: 51.9% | viability, T/C [22]: 47.9% | viability, T/C [23]: 50.2% | viability, T/C [24]: 40.6% | viability, T/C [25]: 34.2% | viability, T/C [26]: 27.4% | viability, T/C [27]: 25.1% | viability, T/C [28]: 26.7% | viability, T/C [29]: 24.1% | viability, T/C [30]: 27.7% | viability, T/C [31]: 17.9% | viability, T/C [32]: 25.7% | viability, T/C [33]: 19% | viability, T/C [34]: 19.3% | viability, T/C [35]: 16.4% | viability, T/C [36]: 21.3%
